We go through 1 compound from patent US20260240810A1, “COMPOSITIONS AND METHODS FOR REDUCING ADVERSE SIDE EFFECTS IN CANCER TREATMENT” (priority 2022, published 2026).

Several values for one entry are separate records, joined by “and”; a condition that tells them apart may be missing. Equal values may be shown once.

Data set [1] concerns squamous cell carcinoma of the oral cavity or oropharynx. Briefly: PREVLAR trial: tumor response and cancer recurrence. In kind it is in vivo, human. The source says: Referring to FIG. 6, FIG. 6 is a table 600 showing various incidences of outcomes for patients in Arm 4 of the PREVLAR study vs. patients in Arms 1, 2, and 3 of the PREVLAR study. The various outcomes include a complete response (CR), a partial response (PR), a CR or PR, not evaluable (NE), and missing. […] Thus, administration of RRx-001 was correlated to better outcomes.
Referring to FIG. 10, FIG. 10 is a bar graph 1000 showing a percentage of less cancer recurrence in RRx-001 treated patients. Accordingly, a higher percentage is correlated to the better outcome of lower cancer recurrence. […] Patients in Arm 4 had the lowest percentage drop of 30.8% of cancer recurrence.
The treatment phase commenced 2 weeks before the start of CRT and continued until the LDRT. The short-term follow-up stage started the day after LDRT and continued until complete resolution of ulcerative OM (World Health Organization (WHO) grade≤1 or 6 weeks after the LDRT, whichever came first). Long-term follow-up was performed to assess tumor response for 12 months after the LDRT. OM was assessed twice weekly beginning on the first day of CRT and continuing to resolution of ulcerative OM by trained evaluators using a standardized data collection tool.

Data set [2] relates to oral mucositis induced by acute radiation in hamsters. Briefly: Oral mucositis induced by acute radiation in hamsters. The class given is in vivo, Golden Hamsters. On the procedure: Referring to FIG. 11, FIG. 11 is a table 1100 showing a study design for an assessment of RRx-001 for the treatment of oral mucositis induced by acute radiation in hamsters. Mucositis was induced in 56 male Golden Hamsters via an acute radiation dose of 40 Gy directed to their left buccal cheek pouch. RRX-001 was administered with a vehicle comprising a 1:2 vol; vol ratio of N,N-Dimethylacetamide/40% Polyethylene Glycol (DMA:PBG). […] Otherwise, dosing was administered according to the “Dose Schedule” column of the table 1100. The study lasted 28 days. Mucositis was evaluated in hamsters from day 6 through day 28.
Starting at day 6 of the study and continuing every second day thereafter (day 8, 10, 12, 14, 16, 18, 20, 22, 24, 26, and 28), the hamsters were photographed and evaluated for mucositis scoring. The hamsters were anesthetized and the left pouch everted to evaluate a score each hamster based on a severity of mucositis. The scores, on a scale of 0-5, are defined as follows: • “0” means a pouch is completely healthy. • “1” means light to […] erythema and vasodilation and no erosion of mucosa. • “2” means severe erythema and vasodilation. Erosion of superficial aspects of mucosa leaving denuded areas. Decreased stippling of mucosa. • “3” means formation of off-white ulcers in one or more places. Ulcers may have a yellow/gray color due to pseudomembrane. Cumulative size of ulcers should equal less than or equal to ¼ of the pouch. Severe erythema and vasodilation. • “4” means a cumulative seize of ulcers should equal about ½ of the pouch. Loss of pliability. Severe erythema and vasodilation. • “5” means virtually all of pouch is ulcerated. Loss of pliability (pouch can only partially be extracted from mouth).
FIG. 15B is a bar graph 1550 showing a percent of cumulative animal days with mucositis scores greater than or equal to 3 for days 6-28. Statistical significance of the observed differences was calculated using chi-squared analysis.
FIG. 16B is a bar graph 1650 showing a percent of cumulative animal days with mucositis scores greater than or equal to 3 for days 6-28. Statistical significance of the observed differences was calculated using chi-squared analysis.
Referring to FIG. 18, FIG. 18 is a table 1800 showing a percent of hamsters with ulceration by day with mucositis scores of greater than or equal to 3. Each data point represents a percentage of hamsters in each group on a day that had both a mucositis score of 3 or greater and open ulcers. Like FIGS. 17A and 17B, horizontal shading denotes a decrease in mucositis scores and vertical shading denotes an increase in mucositis scores.

Data set [3] in a line: Repeated-dose toxicity study in rats. The class given is in vivo. As to conditions: 3 times/week up to 4 weeks. As to the method: Repeated-dose toxicity studies of RRx-001 (3 times/week up to 4 weeks in duration) were conducted in rats at dose levels of 12 mg/kg, 20.1 mg/kg, and 30 mg/kg per day and in dogs at dose levels of 4 mg/kg, 8 mg/kg, and 12 mg/kg per day (due to clinical signs, the 8 mg/kg and 12 mg/kg doses were reduced to 3 mg/kg and 5 mg/kg on Day 4). The no observed adverse effect level was <12 mg/kg in rats and 5 mg/kg in dogs.

The conditions of data set [4]: cited from earlier work.
For data set [5] the following is noted: pharmacokinetic data, J. Scicinski et al. 2011; cited from earlier work.

With `O=C(CBr)N1CC([N+](=O)[O-])([N+](=O)[O-])C1` [RRx-001, 2-bromo-1-(3,3-dinitroazetidin-1-yl) ethan-1-one], the “percentage drop of cancer recurrence” value was determined as 50% in data set [1] (Arm 1), 53.8% in data set [1] (Arm 2) and 76.9% in data set [1] (Arm 3). The “incidence of either CR or PR” value in data set [1] (patients in Arms 1, 2, or 3) amounted to 65.7%. Further, the “incidence of complete response (CR)” value in data set [1] (patients that received RRx-001 in Arms 1, 2, or 3) is 48.6%. For the same compound, the “percent of hamsters with ulceration (mucositis score ≥3)” value in data set [2] (day 12, group 2 (10 mg/kg, discontinued after day 1)) is given as 40%; in data set [2] (day 28, group 2 (10 mg/kg, discontinued after day 1)), 40%; in data set [2] (day 28, group 5 (10 mg/kg, discontinued after day 1)), 57.1%; in data set [2] (day 28, groups 3 and 6 (3 mg/kg)), 75.0%; in data set [2] (day 28, groups 4 and 7 (1 mg/kg)), 62.5%. The “mean daily mucositis score” value in data set [2] (day 28, group 2 (10 mg/kg, dosing discontinued after day 1)) is reported as “approximately 2.2”; in data set [2] (day 28, group 3 (3 mg/kg)), “approximately 2.7”; in data set [2] (day 28, group 5 (10 mg/kg, dosing discontinued after day 1)), “approximately 2.6”; in data set [2] (day 28, group 6 (3 mg/kg)), “approximately 2.7”. The “percent of cumulative animal days with mucositis score greater than or equal to 3” value in data set [2] (days 6-28, group 3 (3 mg/kg)) is 63.54%; in data set [2] (days 6-28, group 6 (3 mg/kg), 3 mg/kg), 53.45% and 63.54%. Further, in data set [2] (groups 2 and 5 (10 mg/kg)), the body weight change result is “initially lost weight, but rebounded”. Moreover, in data set [2] (groups 2 and 5 (10 mg/kg)), the tolerability of dosing result is recorded as “discontinued after day 1 due to adverse side effects”. Also, the “no observed adverse effect level” value in data set [3] was less than 12 mg/kg. Moreover, in data set [4] (N. Jayabalan et al. 2023), the “dose-limiting toxicities and drug-drug interactions” value is “no dose-limiting toxicities and no drug-drug interactions have been observed”. The “safety and tolerability in humans” value in data set [4] (studies from multiple independent groups) is “safe and well-tolerated”. In data set [4] (with and without concurrent radiation therapy, T. Reid et al. 2015), the “tolerability in prior safety assessments in humans” value is “well-tolerated without significant toxicity”. Also, the “half-life of RRx-001” value in data set [5] is recorded as “under an hour”.
